Test results taken from patent publication US11202773B2, “Locally bioavailable drugs” (UNIVERSITY OF HOUSTON SYSTEM, priority 2015, dated 2021).

Experiments:
human COX-2 [1] = target: T1, human COX-2 (Homo sapiens, UniProt P35354); test: In vitro enzyme assay, recombinant human COX-2 (PGE2 production); format: biochemical; details: for IC50: read-out: IC50 against recombinant human COX-2; for Inhibition of COX-2 enzyme (PGE2 production, FIG. 3A): result in words
T1 sequence (P35354 18-604): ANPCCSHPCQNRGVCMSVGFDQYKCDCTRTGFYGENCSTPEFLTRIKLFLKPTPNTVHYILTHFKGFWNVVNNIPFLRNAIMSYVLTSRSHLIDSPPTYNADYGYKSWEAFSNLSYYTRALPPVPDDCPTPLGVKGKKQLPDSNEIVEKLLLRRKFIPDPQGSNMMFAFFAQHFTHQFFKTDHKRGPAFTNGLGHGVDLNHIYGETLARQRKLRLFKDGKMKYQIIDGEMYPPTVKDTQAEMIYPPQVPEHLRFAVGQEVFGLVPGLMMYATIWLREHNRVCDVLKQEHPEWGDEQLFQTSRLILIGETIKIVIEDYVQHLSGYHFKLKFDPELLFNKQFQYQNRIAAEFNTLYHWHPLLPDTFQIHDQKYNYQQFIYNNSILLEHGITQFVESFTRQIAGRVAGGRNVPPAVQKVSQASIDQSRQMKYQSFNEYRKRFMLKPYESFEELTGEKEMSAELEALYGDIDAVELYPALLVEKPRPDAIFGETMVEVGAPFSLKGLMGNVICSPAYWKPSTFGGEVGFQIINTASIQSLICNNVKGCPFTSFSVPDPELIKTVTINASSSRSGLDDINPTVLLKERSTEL
From the text: FIG. 3A is a bar graph illustration of PGE2 production by recombinant human COX-2 enzyme in the presence of the new compounds. Less PGE2 production means inhibition of COX-2 enzyme.
FIG. 3B is a bar graph illustration of PGE2 production by recombinant human COX-2 enzyme in the presence of the metabolites of the new compounds. Less PGE2 production means inhibition of COX-2 enzyme.

human liver microsomes = test: Glucuronidation by human liver microsomes; format: in vitro ADME
Procedure: (§1) FIG. 5D is a bar graph illustrating in vitro metabolism of phenolics. Glucuronidation rates of 6a1-6a4 by human liver and intestinal microsomes. Additional metabolic rates of various locally bioavailable COX-2 inhibitors are in Table 4. […]. The incubation systems were: for glucuronidation, 0.88 mM magnesium chloride (MgCl2), 4.4 mM saccharolactone, 0.022 mg/mL alamethicin, 3.5 mM uridine 5′-diphospho-glucuronic acid (UDPGA), 10 μM substrates and different concentrations of microsomes in 50 mM potassium phosphate buffer (pH 7.4); for sulfation, 10 mM dithiothreitol (DTT), 5 mM MgCl2, 100 μM 3′-phosphoadenosine-5′-phosphosulfate (PAPS),10 μM substrate and different concentrations of S9 fractions in 50 mM potassium phosphate buffer (pH 7.4).
(§2) In vitro tools were employed to help predict the in vivo metabolism rates of the COX-2 inhibitors that are phenolics. The microsomes and S9 fractions prepared from colon or liver were used to determine the in vivo glucuronidation and sulfation rates of the phenolic compounds, respectively. By employing microsomes and S9 fractions prepared from both rats and humans, it could be determined if the results obtained in the rat model could be reasonably extrapolated to humans. In these experiments, raloxifene and genistein, two phenolic compounds which undergo extensive first-pass metabolism, were selected as controls.

mouse COX-2 = target: T2, mouse COX-2 (Mus musculus, UniProt Q05769); test: COX-2 activity (PGD2/PGE2 production) in LPS-induced Raw264.7 cells; format: cell-based; details: for IC50: 0.1 μg/mL LPS, 14 hours co-incubation; for PGD2 production, % of control / PGD2 production by Raw264.7 cells: LPS, 14 hours; for PGD2 production by Raw264.7 cells: 1 μM compound, result in words
T2 construct: Raw264.7 is a mouse macrophage cell line which expresses a high level of COX-2 protein upon lipopolysaccharide (LPS) induction; endogenous in cells; host or cells: Raw264.7 (LPS-induced)
T2 sequence (Q05769 18-604): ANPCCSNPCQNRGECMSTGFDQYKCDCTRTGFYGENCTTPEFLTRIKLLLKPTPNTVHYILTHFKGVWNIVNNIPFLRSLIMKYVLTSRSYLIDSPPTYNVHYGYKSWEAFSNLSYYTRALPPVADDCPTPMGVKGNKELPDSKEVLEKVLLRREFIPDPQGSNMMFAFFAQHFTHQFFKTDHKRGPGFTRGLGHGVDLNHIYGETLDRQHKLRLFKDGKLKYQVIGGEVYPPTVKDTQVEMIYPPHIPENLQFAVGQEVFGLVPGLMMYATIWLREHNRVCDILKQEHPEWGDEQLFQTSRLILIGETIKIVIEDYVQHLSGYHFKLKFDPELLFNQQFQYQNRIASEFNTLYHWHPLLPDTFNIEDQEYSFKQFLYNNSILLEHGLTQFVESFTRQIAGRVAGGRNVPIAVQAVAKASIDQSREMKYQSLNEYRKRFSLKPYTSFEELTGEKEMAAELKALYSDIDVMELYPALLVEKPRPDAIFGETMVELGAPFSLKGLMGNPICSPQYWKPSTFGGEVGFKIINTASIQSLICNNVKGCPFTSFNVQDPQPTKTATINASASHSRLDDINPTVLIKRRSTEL
Procedure: (§3) First, the inhibitory effects of the new synthesized compounds on COX-2 were assayed in two cell lines: Raw264.7 cells and HCA-7 cells. Raw264.7 is a mouse macrophage cell line which expresses a high level of COX-2 protein upon lipopolysaccharide (LPS) induction. […] The concentration of prostaglandins (both PGD2 and PGE2) accumulated in the cell culture medium can be employed as an indicator of COX-2 activity. HCA-7 is a human colon cancer cell line in which COX-2 protein is constitutively expressed. Briefly, the cells were pre-incubated with different concentrations of the new compounds for 30 min, and then 10 μM A23187 (a calcium ionophore) was added to release membrane-bound arachidonic acid (the natural substrate of COX-2) to the cytosolic domain. The system was incubated for another 30 minutes and PGE2 concentrations in the culture medium were determined. In both cell lines, higher PGD2/PGE2 concentrations in the media meant more COX-2 activity.

[2] = test system: human intestine microsomes; test: Glucuronidation by human intestine microsomes; format: in vitro ADME
Procedure: as §1, §2

human COX-2 [3] = target: T1, human COX-2; test: COX-2 activity (PGE2 production) in HCA-7 cells after A23187; format: cell-based; design: HCA-7 is a human colon cancer cell line in which COX-2 protein is constitutively expressed; endogenous in cells; host or cells: HCA-7; details: 30 min pre-incubation, 10 μM A23187, another 30 minutes
Procedure: as §3

| IC50 (human COX-2 [1]) [µM] | Inhibition of COX-2 enzyme (PGE2 production, FIG. 3A) (human COX-2 [1]) | Glucuronidation rates by liver microsomes (Mean) (human liver microsomes) [pmol/mg/min] | IC50 (mouse COX-2) [µM] | PGD2 production, % of control (mouse COX-2; 1 μM 6a1, with glucuronidase (200 units/mL)) | PGD2 production, % of control (mouse COX-2; 1 μM 6a1, without glucuronidase) | PGD2 production by Raw264.7 cells (mouse COX-2) | Glucuronidation rates by intestine microsomes (Mean) [2] [pmol/mg/min] | IC50 (human COX-2 [3]) [µM] | Structure (SMILES) |
| --- | --- | --- | --- | --- | --- | --- | --- | --- | --- |
| 0.118 | effective inhibitors | 11576 | 1.39 ± 0.384 | 24.3 % of control | 67.5 % of control | only slightly reduced | 2786 | 0.195 ± 0.03 | Cc1ccc(-c2cc(COc3ccccc3O)nn2-c2ccc(S(N)(=O)=O)cc2)cc1 [Compound 6a1] |
| 0.201 | effective inhibitors | 1512 | 4.62 ± 1.34 | – | – | only slightly reduced | 924 | 0.134 ± 0.018 | Cc1ccc(-c2cc(COc3cccc(O)c3)nn2-c2ccc(S(N)(=O)=O)cc2)cc1 [Compound 6a2] |
| 1.08 | effective inhibitors | 60 | 0.019 ± 0.002 | – | – | thoroughly inhibited | 45 | 0.064 ± 0.005 | Cc1ccc(-c2cc(COc3ccc(O)cc3)nn2-c2ccc(S(N)(=O)=O)cc2)cc1 [Compound 6a3] |
